Source: patent publication US7732609B2, “5-(arylsulfonyl)-pyrazolopiperidines” (Elan Pharmaceuticals, Inc., priority 2005, dated 2010)

Biological target: T1, gamma-secretase (Homo sapiens, UniProt P49768)
T1 construct: The assay used a partially purified extract of IMR-32 cell membranes as the gamma-secretase enzyme preparation; endogenous in cells; host or cells: IMR-32 cell membranes (partially purified extract)
Test: Gamma-secretase APP enzyme assay (MBP-C125 Swe cleavage at Aβ40 site, sandwich ELISA)
Format: biochemical
Settings: IMR-32 cell membrane extract as enzyme; MBP-C125swe substrate; 2 h at 37° C; read-out: γAPP
From the text: The gamma-secretase APP enzyme assay was designed to measure the specific proteolytic cleavage of an APP substrate (MBP-C125 Swe fusion protein) at the Aβ40 site. The assay used a partially purified extract of IMR-32 cell membranes as the gamma-secretase enzyme preparation and a recombinant fusion protein containing the C-terminal 125 amino acids of the Swedish variant of the APP (MBP-C125swe) as the substrate. This assay involved two steps beginning with the enzymatic reaction generating a cleavage product that was captured with an immobilized antibody specific for the neo-epitope Aβ40 site. The captured cleavage product was then detected in a sandwich ELISA assay with a biotinylated reporter antibody that is specific to Aβ (17-28). Streptavidin-linked alkaline phosphatase was then added that would generate a fluorescent signal proportional to the amount of cleavage product. This assay was used to discover small molecule inhibitors of gamma-secretase.
Briefly, a 149 mg/ml solution of BIGCHAP detergent was made with water at 42° C. and then rotated for 30 minutes at the same temperature. This warmed solution of BigCHAPS(N,N-Bis(3-D-gluconamidopropyl)cholamide) detergent was used to dissolve Brain Extract Type-V (lipid containing a minimum of 40% phosphatidylethanolamine) from Sigma (St. Louis, Mo.) to a concentration of 8 mg/ml. This solution containing BigCHAPS and lipid at 8 mg/ml is then diluted to 0.53 mg/ml lipid with a pre-warmed solution of Hepes and sodium chloride. This final solution containing Hepes buffer, sodium chloride, BigCHAPS detergent and lipid is used to create working solutions of both gamma-secretase (25 Units) and the MBP-C125 substrate (0.05 mg/ml).
Gamma-secretase was then added to a 96-well micro-titre plate and then incubated with various concentrations of inhibitor for 30 minutes at 37° C. MBPC125 substrate was then added to initiate the reaction that would run for two hours at 37° C. The reaction was quenched with the addition of SDS to a final concentration of 0.1% and then 100 μl of the reaction mixture was transferred to a capture ELISA plate and incubated overnight at 4° C. Detection of the cleavage product was performed using a standard sandwich ELISA assay and quantified using a six point standard curve.

IC50	Compound
150 to 300 nM	O=S(=O)(c1ccc(Cl)cc1)N1Cc2cccnc2CC1c1ccc(Cl)cc1 (stereo not shown) [7-(4-chlorophenyl)-6-(4-chlorophenylsulfonyl)-5,6,7,8-tetrahydro-1,6-naphthyridine]
< 50 nM	CC(C)C1Cc2n[nH]cc2CN1S(=O)(=O)c1ccc(Cl)cc1 (stereo not shown) [5-(4-chlorophenylsulfonyl)-6-isopropyl-4,5,6,7-tetrahydro-1H-pyrazolo[4,3-c]pyridine]
< 50 nM	O=S(=O)(c1ccc(Cl)cc1)N1Cc2c[nH]nc2CC1c1cc(F)cc(F)c1 (stereo not shown) [5-(4-chlorophenylsulfonyl)-6-(3,5-difluorophenyl)-4,5,6,7-tetrahydro-1H-pyrazolo[4,3-c]pyridine]
< 50 nM	O=S(=O)(c1ccc(Cl)cc1)N1CCc2ncccc2C1c1ccc(Cl)cc1 (stereo not shown) [5-(4-chlorophenyl)-6-(4-chlorophenylsulfonyl)-5,6,7,8-tetrahydro-1,6-naphthyridine]
< 50 nM	CC[C@H]1Cc2n[nH]cc2[C@@H](c2ccc(Cl)cc2)N1S(=O)(=O)c1ccc(Cl)cc1 [(4R,6S)-4-(4-chlorophenyl)-5-(4-chlorophenylsulfonyl)-6-ethyl-4,5,6,7-tetrahydro-1H-pyrazolo[4,3-c]pyridine]
< 50 nM	CC[C@@H]1c2c[nH]nc2C[C@H](c2ccc(Cl)cc2)N1S(=O)(=O)c1ccc(Cl)cc1 [(4R,6R)-6-(4-chlorophenyl)-5-(4-chlorophenylsulfonyl)-4-ethyl-4,5,6,7-tetrahydro-1H-pyrazolo[4,3-c]pyridine]
< 50 nM	CC[C@H]1Cc2n[nH]cc2[C@@H](CC)N1S(=O)(=O)c1ccc(Cl)cc1 [(4R,6S)-5-(4-chlorophenylsulfonyl)-4,6-diethyl-4,5,6,7-tetrahydro-1H-pyrazolo[4,3-c]pyridine]
< 50 nM	O=S(=O)(c1ccc(Cl)cc1)N1Cc2c[nH]nc2CC1c1cncnc1 (single isomer, unassigned) [5-(4-chlorophenylsulfonyl)-6-(pyrimidin-5-yl)-4,5,6,7-tetrahydro-1H-pyrazolo[4,3-c]pyridine]
< 50 nM	O=S(=O)(c1ccc(Cl)cc1)N1CCc2n[nH]cc2C1c1nccs1 (stereo not shown) [2-(5-(4-chlorophenylsulfonyl)-4,5,6,7-tetrahydro-2H-pyrazolo[4,3-c]pyridin-4-yl)thiazole]
< 50 nM	O=S(=O)(c1ccc(Cl)cc1)N1Cc2cn[nH]c2CC1c1ccc(F)cc1 (stereo not shown) [5-(4-chlorophenylsulfonyl)-6-(4-fluorophenyl)-4,5,6,7-tetrahydro-1H-pyrazolo[4,3-c]pyridine]
50 to 150 nM	O=S(=O)(c1ccc(Cl)cc1)N1Cc2cn[nH]c2CC1c1cccnc1 (stereo not shown) [5-(4-chlorophenylsulfonyl)-6-(pyridin-3-yl)-4,5,6,7-tetrahydro-1H-pyrazolo[4,3-c]pyridine]
50 to 150 nM	O=S(=O)(c1ccc(Cl)cc1)N1Cc2c[nH]nc2CC1Cc1ccccc1 (stereo not shown) [6-benzyl-5-(4-chlorophenylsulfonyl)-4,5,6,7-tetrahydro-1H-pyrazolo[4,3-c]pyridine]
< 50 nM	O=S(=O)(c1ccc(Cl)s1)N1Cc2cn[nH]c2CC1c1ccccc1 (stereo not shown) [5-(5-chlorothiophen-2-ylsulfonyl)-6-phenyl-4,5,6,7-tetrahydro-1H-pyrazolo[4,3-c]pyridine]
150 to 300 nM	O=S(=O)(c1ccc(Cl)cc1)N1Cc2c[nH]nc2CC1c1nccs1 (stereo not shown) [2-(5-(4-chlorophenylsulfonyl)-4,5,6,7-tetrahydro-2H-pyrazolo[4,3-c]pyridin-6-yl)thiazole]
150 to 300 nM	CN(C)C(=O)OC[C@@H]1c2cn[nH]c2CCN1S(=O)(=O)c1ccc(Cl)cc1 [(S)-(5-(4-chlorophenylsulfonyl)-4,5,6,7-tetrahydro-1H-pyrazolo[4,3-c]pyridin-4-yl)methyl dimethylcarbamate]
150 to 300 nM	O=S(=O)(c1ccc(Cl)cc1)N1Cc2c(C(F)(F)F)n[nH]c2CC1c1ccc(Cl)cc1 (stereo not shown) [6-(4-chlorophenyl)-5-(4-chlorophenylsulfonyl)-3-(trifluoromethyl)-4,5,6,7-tetrahydro-1H-pyrazolo[4,3-c]pyridine]
150 to 300 nM	O=S(=O)(c1ccc(Cl)cc1)N1CCc2[nH]ncc2C1c1nc2ccccc2[nH]1 (stereo not shown) [4-(1H-Benzoimidazol-2-yl)-5-(4-chloro-benzenesulfonyl)-4,5,6,7-tetrahydro-1H-pyrazolo[4,3-c]pyridine]
< 50 nM	O=S(=O)(c1ccc(Cl)cc1)N1Cc2c[nH]nc2CC1c1ccccc1 (stereo not shown) [5-(4-chlorophenylsulfonyl)-6-phenyl-4,5,6,7-tetrahydro-1H-pyrazolo[4,3-c]pyridine]
< 50 nM	O=S(=O)(c1ccc(Cl)cc1)N1Cc2cn[nH]c2CC1c1cccc(F)c1 (stereo not shown) [5-(4-chlorophenylsulfonyl)-6-(3-fluorophenyl)-4,5,6,7-tetrahydro-1H-pyrazolo[4,3-c]pyridine]
150 to 300 nM	O=S(=O)(c1ccc(Cl)cc1)N1Cc2cn[nH]c2CC1CO (stereo not shown) [(5-(4-chlorophenylsulfonyl)-4,5,6,7-tetrahydro-1H-pyrazolo[4,3-c]pyridin-6-yl)methanol]

Continued, compound first:

Compound	IC50
(4S,6R)-diethyl 5-(4-chlorophenylsulfonyl)-4,5,6,7-tetrahydro-1H-pyrazolo[4,3-c]pyridine-4,6-dicarboxylate	50 to 150 nM
O=S(=O)(c1ccc(Cl)cc1)N1[C@@H](CO)Cc2[nH]ncc2[C@H]1CO [((4S,6R)-5-(4-chlorophenylsulfonyl)-4,5,6,7-tetrahydro-1H-pyrazolo[4,3-c]pyridine-4,6-diyl)dimethanol]	150 to 300 nM
CC[C@H]1c2cn[nH]c2C[C@@H](COC(=O)N(C)C)N1S(=O)(=O)c1ccc(Cl)cc1 [((4S,6S)-5-(4-chlorophenylsulfonyl)-4-ethyl-4,5,6,7-tetrahydro-1H-pyrazolo[4,3-c]pyridin-6-yl)methyl dimethylcarbamate]	< 50 nM
CC[C@@H]1C(=O)c2[nH]ncc2[C@H](CC)N1S(=O)(=O)c1ccc(Cl)cc1 [(4S,6R)-5-(4-chlorophenylsulfonyl)-4,6-diethyl-5,6-dihydro-1H-pyrazolo[4,3-c]pyridin-7(4H)-one]	150 to 300 nM
CC[C@H]1Cc2[nH]ncc2[C@@H](CC)N1S(=O)(=O)c1ccccn1 [(4R,6S)-4,6-diethyl-5-(pyridin-2-ylsulfonyl)-4,5,6,7-tetrahydro-1H-pyrazolo[4,3-c]pyridine]	50 to 150 nM
CCC1c2cn[nH]c2CC(CO)N1S(=O)(=O)c1ccc(Cl)cc1 (stereo not shown) [5-(4-chlorophenylsulfonyl)-4-ethyl-4,5,6,7-tetrahydro-1H-pyrazolo[4,3-c]pyridin-6-yl)methanol]	< 50 nM
CC[C@H]1Cc2[nH]ncc2[C@@H](COC(=O)N(C)C)N1S(=O)(=O)c1ccc(Cl)cc1 [((4S,6S)-5-(4-chlorophenylsulfonyl)-6-ethyl-4,5,6,7-tetrahydro-1H-pyrazolo[4,3-c]pyridin-4-yl)methyl dimethylcarbamate]	150 to 300 nM
CC[C@@H]1c2cn[nH]c2C[C@@H](COC(=O)N(C)C)N1S(=O)(=O)c1ccc(Cl)cc1 [((4R,6S)-5-(4-chlorophenylsulfonyl)-4-ethyl-4,5,6,7-tetrahydro-1H-pyrazolo[4,3-c]pyridin-6-yl)methyl dimethylcarbamate]	150 to 300 nM
CC[C@@H]1c2cn[nH]c2C(=O)[C@H](CC)N1S(=O)(=O)c1ccc(Cl)cc1 [(4R,6S)-5-(4-chlorophenylsulfonyl)-4,6-diethyl-5,6-dihydro-1H-pyrazolo[4,3-c]pyridin-7(4H)-one]	< 50 nM
CC[C@@H]1Cc2[nH]ncc2[C@@H](COC(=O)N(C)C)N1S(=O)(=O)c1ccc(Cl)cc1 [((4S,6R)-5-(4-chlorophenylsulfonyl)-6-ethyl-4,5,6,7-tetrahydro-1H-pyrazolo[4,3-c]pyridin-4-yl)methyl dimethylcarbamate]	150 to 300 nM
CC[C@@H]1Cc2[nH]ncc2[C@H](CC)N1S(=O)(=O)c1ccc(Cl)cc1 [(4S,6R)-5-(4-chlorophenylsulfonyl)-4,6-diethyl-4,5,6,7-tetrahydro-1H-pyrazolo[4,3-c]pyridine]	50 to 150 nM
CN(C)C(=O)OC[C@@H]1c2cnn(C(=O)N(C)C)c2CCN1S(=O)(=O)c1ccc(Cl)cc1 [(S)-(5-(4-chlorophenylsulfonyl)-1-(dimethylcarbamoyl)-4,5,6,7-tetrahydro-1H-pyrazolo[4,3-c]pyridin-4-yl)methyl dimethylcarbamate]	150 to 300 nM
CC[C@@H]1c2cn[nH]c2/C(=N\O)[C@H](CC)N1S(=O)(=O)c1ccc(Cl)cc1 [(4R,6S,Z)-5-(4-chlorophenylsulfonyl)-4,6-diethyl-5,6-dihydro-1H-pyrazolo[4,3-c]pyridin-7(4H)-one oxime]	50 to 150 nM
CC[C@H]1Cc2n[nH]cc2[C@@H](CC)N1S(=O)(=O)c1ccc(F)cc1 [(4R,6S)-4,6-diethyl-5-(4-fluorophenylsulfonyl)-4,5,6,7-tetrahydro-2H-pyrazolo[4,3-c]pyridine]	< 50 nM
